Publication PMC12152147, “DDB1 engagement defines the selectivity of S656 analogs for cyclin K degradation over CDK inhibition” (EMBO Reports, 2025)
Read-outs that look alike come from different tables or passages of the source.

Assays:
cyclin KeGFP = assay: Cyclin KeGFP reporter system (eGFP/mCherry MFI by flow cytometry);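 on % degradation cyclin K-eGFP: 10 μM compound for 3 h relative to DMSO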; assay type: cell-based, H. sapiens; conditions: for % degradation cyclin K-eGFP: cyclin K-eGFP reporter
Procedure: We used the cyclin KeGFP reporter system previously described (Słabicki et al, [2020]). Lentiviral vector (Addgene plasmid #169930) was used to infect OCI-AML5 at a MOI of 5 and were selected with puromycin. Cells were seeded in methylcellulose and let grown as colonies for 10 days. Colonies were isolated, expanded and selected based on cyclin KeGFP fluorescence in presence and absence of cyclin K degrader molecules. Selected G7 clone was used for all reported experiments. Fluorescent signal of cyclin KeGFP and mCherry were quantified by flow cytometry (BD LSRII) in each condition and the geometric mean fluorescence intensity (MFI) were calculated using FlowJo (BD Biosciences). The ratio of eGFP to mCherry was normalized to DMSO-treated cells.

CDK9/CyclinT = molecular target: T1, CDK9/CyclinT (Homo sapiens, UniProt P50750); assay: CDK9/CyclinT in vitro kinase activity, single concentration 1 μM; assay type: biochemical; conditions: single concentration 1 μM
T1 construct: purchased BPS Bioscience 79628
Procedure: Kinase activity was assessed using the kinase assay kits from BPS Bioscience for CDK1, CDK9 and CDK12 with Kinase Glo MAX in duplicates. Compounds were tested at a single concentration of 1 μM for CDK1 and CDK9 activity, and in a dilution ranging from 0.64 nM to 50 μM for CDK12 activity. Chemiluminescence was read using the Neo Synergy BioTek plate reader.

[1] = test system: OCI-AML5 cells expressing shRNAs targeting CDK1, 2, 4, 7, 9, cyclin K; assay: Dose response in OCI-AML5 expressing shRNAs targeting CDK1, 2, 4, 7, 9, cyclin K or control; assay type: cell-based, H. sapiens; conditions: for Class: class from shRNA IC50 profile and cyclin K-eGFP degradation
OCI-AML5 cells = assay: Dose-response proliferative assay in OCI-AML5 (4 days, CellTiterGlo); assay type: cell-based, H. sapiens
Procedure: Cell lines were purchased from the ATCC or donated from collaborators. OCI-AML5 cell line was cultured in αMEM, 10% heat-inactivated FBS supplemented with 10 ng/mL GM-CSF, OCI-AML1, U2OS and HEK293T cell lines in DMEM, 10% heat-inactivated FBS. Cells were maintained at 37 °C in 5% CO2 atmosphere.
Dose-response assays in primary AML specimens were performed as in chemical screen (see above) with the exception that compounds were tested in serial dilution (8 dilutions, 1:4, 10 μM down to 0.5 nM). Dose-response assays in OCI-AML5 cell line were conducted similarly with the following modifications: 300 cells per well were seeded in 50 μL of cell line media and cell viability was evaluated after 4 days in culture.

[2] = test system: OCI-AML5 cells expressing shRNA targeting CUL4A or CUL4B; assay: Dose response in OCI-AML5 expressing shRNAs targeting CUL4A, CUL4B or control; assay type: cell-based, H. sapiens; conditions: ratio of IC50 in shCUL4A vs shCTRL OCI-AML5 cells
[3] = OCI-AML5 expressing shRNA CCNK (cyclin K), read-out: IC50 shRNA CCNK
[4] = OCI-AML5 expressing shRNA CDK1, read-out: IC50 shRNA CDK1
[5] = OCI-AML5 expressing shRNA CDK2, read-out: IC50 shRNA CDK2
[6] = OCI-AML5 expressing shRNA CDK4, read-out: IC50 shRNA CDK4
[7] = OCI-AML5 expressing shRNA CDK7, read-out: IC50 shRNA CDK7
[8] = OCI-AML5 expressing shRNA CDK9, read-out: IC50 shRNA CDK9
[9] = Homo sapiens, OCI-AML-5, OCI-AML5 cells, read-out: IC50 in AML5
[10] = Homo sapiens, OCI-AML-5, OCI-AML5 expressing shRNA CCNK (cyclin K), read-out: IC50 shRNA CCNK
[11] = Homo sapiens, OCI-AML-5, OCI-AML5 expressing shRNA CDK1, read-out: IC50 shRNA CDK1
[12] = Homo sapiens, OCI-AML-5, OCI-AML5 expressing shRNA CDK2, read-out: IC50 shRNA CDK2
[13] = Homo sapiens, OCI-AML-5, OCI-AML5 expressing shRNA CDK4, read-out: IC50 shRNA CDK4
[14] = Homo sapiens, OCI-AML-5, OCI-AML5 expressing shRNA CDK7, read-out: IC50 shRNA CDK7
[15] = Homo sapiens, OCI-AML-5, OCI-AML5 expressing shRNA CDK9, read-out: IC50 shRNA CDK9

T1 sequence (P50750 whole entry): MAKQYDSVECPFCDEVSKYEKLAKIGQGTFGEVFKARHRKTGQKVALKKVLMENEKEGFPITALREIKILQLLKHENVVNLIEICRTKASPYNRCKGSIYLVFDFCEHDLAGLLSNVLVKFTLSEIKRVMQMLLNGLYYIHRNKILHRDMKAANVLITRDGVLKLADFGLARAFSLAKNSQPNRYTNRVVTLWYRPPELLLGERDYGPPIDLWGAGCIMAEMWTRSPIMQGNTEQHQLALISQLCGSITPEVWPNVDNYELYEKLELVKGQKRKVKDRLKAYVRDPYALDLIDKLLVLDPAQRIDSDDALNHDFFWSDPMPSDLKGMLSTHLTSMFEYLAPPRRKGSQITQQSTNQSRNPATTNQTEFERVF
T1 sequence (O60563 whole entry partner): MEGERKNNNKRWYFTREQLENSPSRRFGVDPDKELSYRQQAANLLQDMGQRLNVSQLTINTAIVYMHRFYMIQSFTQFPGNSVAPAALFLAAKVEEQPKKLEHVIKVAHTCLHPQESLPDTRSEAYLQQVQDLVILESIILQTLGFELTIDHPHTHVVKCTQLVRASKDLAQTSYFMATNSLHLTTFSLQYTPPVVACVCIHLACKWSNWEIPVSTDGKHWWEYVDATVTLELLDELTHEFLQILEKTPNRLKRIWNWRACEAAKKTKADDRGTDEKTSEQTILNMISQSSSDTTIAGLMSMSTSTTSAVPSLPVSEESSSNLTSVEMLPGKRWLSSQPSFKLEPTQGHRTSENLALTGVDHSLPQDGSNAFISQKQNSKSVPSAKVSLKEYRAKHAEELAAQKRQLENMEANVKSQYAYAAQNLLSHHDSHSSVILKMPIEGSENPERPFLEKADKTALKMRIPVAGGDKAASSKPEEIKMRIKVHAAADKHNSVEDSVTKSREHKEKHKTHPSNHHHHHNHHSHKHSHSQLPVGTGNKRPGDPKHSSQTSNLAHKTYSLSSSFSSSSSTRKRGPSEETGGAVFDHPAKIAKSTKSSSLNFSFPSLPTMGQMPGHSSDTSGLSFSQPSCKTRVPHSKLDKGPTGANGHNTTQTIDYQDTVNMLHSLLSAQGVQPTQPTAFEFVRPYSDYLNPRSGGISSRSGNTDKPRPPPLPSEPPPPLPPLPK

% CDK9 inhibition (CDK9/CyclinT)	IC50 [1, 3]	IC50 [1, 4]	IC50 [1, 5]	IC50 [1, 6]	IC50 [1, 7]	IC50 [1, 8]	IC50 (OCI-AML5 cells; [9])	inhibition at 1 µM (CDK9/CyclinT)	IC50 [1, 10]	IC50 [1, 11]	IC50 [1, 12]	IC50 [1, 13]	IC50 [1, 14]	IC50 [1, 15]	SMILES	% degradation cyclin K-eGFP (cyclin KeGFP)	Class [1]	Ratio shCUL4A/shCTRL [2]	activity after alteration of the aminothiazole core / bulky replacement [1]	further results
1%	> 10 µM	2.97 µM	> 10 µM	> 10 µM	> 10 µM	> 10 µM									CC(=O)Nc1ncc(SCc2cccnc2)s1 [UOM-005188]	6%	2			
							4.29 µM	72%	3.02 µM	2.68 µM	4.39 µM	3.59 µM	3.83 µM	3.64 µM	O=C(Cc1ccc(C(F)(F)F)cc1)Nc1ncc(SCc2cccnc2)s1 [UOM-005203]	51%	mixed 1-2	1.13		
							4.48 µM	15%	6.94 µM	3.57 µM	8.34 µM	5.28 µM	8.07 µM	4.1 µM	O=C(Cc1cc(F)ccc1Br)Nc1ncc(SCc2cccnc2)s1 [UOM-005204]	12%	2	1.11		
40%	5.11 µM	2.99 µM	2.94 µM	5.08 µM	3.3 µM	4.3 µM									CC(C)(C)OC(=O)N1CCC(C(=O)Nc2ncc(SCc3cccnc3)s2)CC1 [UOM-005205]	32%		0.65		IC50 (OCI-AML5 cells; OCI-AML5 cells, read-out: IC50 in AML5): 2.92 µM
							1.18 µM	67%	0.458 µM	0.867 µM	1.28 µM	1.3 µM	1.33 µM	0.848 µM	CSc1ccc(CC(=O)Nc2ncc(SCc3cccnc3)s2)cc1 [UOM-005206]	76%	mixed 1-2	1.77		
							3.79 µM	73%	4.56 µM	2.36 µM	2.92 µM	4.09 µM	4.06 µM	3 µM	O=C(CC1CCCC1)Nc1ncc(SCc2cccnc2)s1 [UOM-005225]	2%	2	1.07		
							5.63 µM	53%	6.24 µM	7.68 µM	6.5 µM	4.79 µM	4.79 µM	5.39 µM	Cc1nc(CC(=O)Nc2ncc(SCc3cccnc3)s2)c(C)s1 [UOM-005227]	0%		1.12		
							4.04 µM	51%	5.43 µM	2.27 µM	4.58 µM	4.4 µM	4.12 µM	3.26 µM	Cn1cc(CC(=O)Nc2ncc(SCc3cccnc3)s2)c2ccccc21 [UOM-005228]	23%	2	0.81		
							> 10 µM	0%	> 10 µM	> 10 µM	> 10 µM	> 10 µM	> 10 µM	> 10 µM	CN(C)c1ccc(CC(=O)Nc2nnc(SCc3cccnc3)s2)cc1 [UOM-005628]	0%	inactive		loss of binding of the compounds to CDK	

More lines, now with the values behind:

SMILES	% CDK9 inhibition (CDK9/CyclinT)	IC50 [1, 3]	IC50 [1, 4]	IC50 [1, 5]	IC50 [1, 6]	IC50 [1, 7]	IC50 [1, 8]	IC50 (OCI-AML5 cells; [9])	inhibition at 1 µM (CDK9/CyclinT)	IC50 [1, 10]	IC50 [1, 11]	IC50 [1, 12]	IC50 [1, 13]	IC50 [1, 14]	IC50 [1, 15]	% degradation cyclin K-eGFP (cyclin KeGFP)	Class [1]	Ratio shCUL4A/shCTRL [2]	activity after alteration of the aminothiazole core / bulky replacement [1]	further results
Cc1nnc(NC(=O)Cc2ccc(N(C)C)cc2)s1 [UOM-005596]	0%	> 10 µM	> 10 µM	> 10 µM	> 10 µM	> 10 µM	> 10 µM									0%	inactive		loss of binding of the compounds to CDK	
CN(C)c1ccc(CC(=O)Nc2nccs2)cc1 [UOM-005597]								> 10 µM	0%	> 10 µM	> 10 µM	> 10 µM	> 10 µM	> 10 µM	> 10 µM	4%	inactive			
Cc1csc(NC(=O)Cc2ccc(N(C)C)cc2)n1 [UOM-005598]	0%	> 10 µM	> 10 µM	> 10 µM	> 10 µM	> 10 µM	> 10 µM									1%	inactive		neither bind to CDKs, nor degrade Cyclin K	
CN(C)c1ccc(CC(=O)Nc2nc3c(s2)CCC3)cc1 [UOM-005599]								> 10 µM	0%	> 10 µM	> 10 µM	> 10 µM	> 10 µM	> 10 µM	> 10 µM	13%	inactive		neither bind to CDKs, nor degrade Cyclin K	
CN(C)c1ccc(CC(=O)Nc2nc3ccccc3s2)cc1 [UOM-005600]	10%	> 10 µM	> 10 µM	> 10 µM	> 10 µM	> 10 µM	> 10 µM									29%	inactive		neither bind to CDKs, nor degrade Cyclin K	
CN(C)c1ccc(CC(=O)Nc2nncs2)cc1 [UOM-005601]	0%	> 10 µM	> 10 µM	> 10 µM	> 10 µM	> 10 µM	> 10 µM									1%	inactive		loss of binding of the compounds to CDK	
COC(=O)c1cnc(NC(=O)Cc2ccc(N(C)C)cc2)s1 [UOM-005602]								> 10 µM	0%	> 10 µM	> 10 µM	> 10 µM	> 10 µM	> 10 µM	> 10 µM	26%	inactive			
CN(C)c1ccc(CC(=O)Nc2nc3ccccc3[nH]2)cc1 [UOM-005603]								> 10 µM	0%	> 10 µM	> 10 µM	> 10 µM	> 10 µM	> 10 µM	> 10 µM	10%	inactive		neither bind to CDKs, nor degrade Cyclin K	
CN(C)c1ccc(CC(=O)Nc2nc3ccccc3o2)cc1 [UOM-005604]	0%	> 10 µM	> 10 µM	> 10 µM	> 10 µM	> 10 µM	> 10 µM									8%	inactive		neither bind to CDKs, nor degrade Cyclin K	
CN(C)c1ccc(C(=O)Nc2ncc(SCc3cccnc3)s2)cc1 [UOM-005845]																				IC50 (OCI-AML5 cells; Homo sapiens, OCI-AML-5, 96 h, 4 days incubation, read-out: IC50 OCI-AML5): 1.97 µM; % cyclin KeGFP degradation (cyclin KeGFP; 3 h, 10 μM, compared to DMSO, OCI-AML5 G7 clone): 0%
